Source: ChEMBL document CHEMBL3045196, “Relationships between Insecticidal Activity of 6-Alkylthio-2-pyridyl Methanesulfonates and Acetylcholinesterase Inhibition of their Sulfone Derivatives against Nephotettix cincticeps” (J Pestic Sci, 1990)

Columns and labels:
Nephotettix cincticeps [1] = test: Insecticidal activity against resistant Nephotettix cincticeps Izumi (green rice leafhopper) assessed as mortality by foliar-spray; type: functional
Nephotettix cincticeps [2] = test: Insecticidal activity against susceptible Nephotettix cincticeps Ageo (green rice leafhopper)assessed as mortality by foliar-spray; type: functional
[3] = Methanol-water partition coefficient, log k of the compound; type: physicochemical
[4] = biological target: Ace-orthologous acetylcholinesterase (Nephotettix cincticeps) (UniProt Q9NJH6); test: Inhibition of susceptible Nephotettix cincticeps Izumi (green rice leafhopper) acetylcholinesterase activity
[5] = biological target: Ace-orthologous acetylcholinesterase (Nephotettix cincticeps) (UniProt Q9NJH6); test: Inhibition of susceptible Nephotettix cincticeps Ageo (green rice leafhopper) acetylcholinesterase activity

Chain of Ace-orthologous acetylcholinesterase (Nephotettix cincticeps) (Q9NJH6 20-677 limits assumed): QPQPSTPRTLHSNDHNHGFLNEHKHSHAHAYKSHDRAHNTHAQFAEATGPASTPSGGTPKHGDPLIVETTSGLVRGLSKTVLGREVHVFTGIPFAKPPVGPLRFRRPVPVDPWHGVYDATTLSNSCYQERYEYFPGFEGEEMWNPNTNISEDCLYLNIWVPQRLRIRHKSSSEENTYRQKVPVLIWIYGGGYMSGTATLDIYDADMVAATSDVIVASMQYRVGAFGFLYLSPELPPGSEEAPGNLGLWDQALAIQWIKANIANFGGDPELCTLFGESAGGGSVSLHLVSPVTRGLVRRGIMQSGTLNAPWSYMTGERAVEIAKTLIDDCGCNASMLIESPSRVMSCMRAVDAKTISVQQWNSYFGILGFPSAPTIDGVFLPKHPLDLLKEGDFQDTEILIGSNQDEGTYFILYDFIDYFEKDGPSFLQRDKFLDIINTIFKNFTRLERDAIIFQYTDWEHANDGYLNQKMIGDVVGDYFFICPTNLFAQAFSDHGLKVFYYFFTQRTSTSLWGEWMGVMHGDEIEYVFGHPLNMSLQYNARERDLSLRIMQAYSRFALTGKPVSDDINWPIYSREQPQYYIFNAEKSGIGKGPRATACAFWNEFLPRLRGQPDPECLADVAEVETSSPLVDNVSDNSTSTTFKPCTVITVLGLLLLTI

Structure (SMILES) | log(1/LD50) (Nephotettix cincticeps [1]) | log(1/LD50) (Nephotettix cincticeps [2]) | log K [3] | log(1/I50) [4] | log(1/I50) [5]
CCCCSc1cccc(OS(C)(=O)=O)n1 | 7.41 | 8.3 | 0.425 |  | 
CCCCS(=O)(=O)c1cccc(OS(C)(=O)=O)n1 |  |  | 0.293 | 8.22 | 8.8
CC(C)S(=O)(=O)c1cccc(OS(C)(=O)=O)n1 |  |  | -0.115 | 8.3 | 9.52
CC(C)(C)Sc1cccc(OS(C)(=O)=O)n1 | 6.87 | 7.82 | 0.277 |  | 
CCC(C)Sc1cccc(OS(C)(=O)=O)n1 (stereo not drawn) | 7.68 | 8.24 | 0.37 |  | 
CS(=O)(=O)Oc1cccc(S(=O)(=O)C2CCCCC2)n1 |  |  | 0.565 | 9.1 | 9.02
CS(=O)(=O)Oc1cccc(S(C)(=O)=O)n1 |  |  | -0.602 |  | 7.17
CCC(C)S(=O)(=O)c1cccc(OS(C)(=O)=O)n1 (stereo not drawn) |  |  | 0.188 | 9 | 8.7
CS(=O)(=O)Oc1cccc(S(=O)(=O)c2ccccc2)n1 |  |  | 0.236 | 8 | 8.14
CS(=O)(=O)Oc1cccc(SCc2ccccc2)n1 | 6.97 | 7.91 | 0.33 |  | 
CC(C)CS(=O)(=O)c1cccc(OS(C)(=O)=O)n1 |  |  | 0.274 | 8.4 | 9.15
CS(=O)(=O)Oc1cccc(SC2CCCCC2)n1 | 7.28 | 7.69 | 0.664 |  | 
CC(C)CCS(=O)(=O)c1cccc(OS(C)(=O)=O)n1 |  |  | 0.576 | 7.8 | 7.77
CS(=O)(=O)Oc1cccc(S(=O)(=O)Cc2ccccc2)n1 |  |  | 0.35 | 8.09 | 8.82
CS(=O)(=O)Oc1cccc(SCC2CC2)n1 | 7.8 | 8.64 | 0.192 |  | 
CS(=O)(=O)Oc1cccc(SC2CCCC2)n1 | 7.82 | 8.39 | 0.447 |  | 
CCCCCS(=O)(=O)c1cccc(OS(C)(=O)=O)n1 |  |  | 0.632 | 8 | 8.15

Structure (SMILES) | log(1/LD50) (Nephotettix cincticeps [1]) | log(1/LD50) (Nephotettix cincticeps [2]) | log K [3] | log(1/I50) [4] | log(1/I50) [5]
CCCSc1cccc(OS(C)(=O)=O)n1 | 7.65 | 8.57 | 0.196 |  | 
CCCS(=O)(=O)c1cccc(OS(C)(=O)=O)n1 |  |  | -0.036 | 8.08 | 8.7
CS(=O)(=O)Oc1cccc(Sc2ccccc2)n1 | 7.3 | 8.53 | 0.268 |  | 
CC(C)CCSc1cccc(OS(C)(=O)=O)n1 | 6.44 | 7.24 | 0.614 |  | 
CCCC(C)Sc1cccc(OS(C)(=O)=O)n1 (stereo not drawn) | 7.41 | 7.65 | 0.59 |  | 
CC(C)(C)S(=O)(=O)c1cccc(OS(C)(=O)=O)n1 |  |  | 0.085 | 7.07 | 7.28
CSc1cccc(OS(C)(=O)=O)n1 | 5.74 | 6.71 | 0.259 |  | 
CCS(=O)(=O)c1cccc(OS(C)(=O)=O)n1 |  |  | -0.358 | 7.22 | 8.02
CC(C)CSc1cccc(OS(C)(=O)=O)n1 [6-(ISOBUTYLTHIO)PYRIDIN-2-YL METHANESULFONATE] | 7.95 | 8.16 | 0.399 |  | 
CSCCSc1cccc(OS(C)(=O)=O)n1 | 6.54 | 7.7 | -0.174 |  | 
CCCCCSc1cccc(OS(C)(=O)=O)n1 | 6.74 | 7.43 | 0.649 |  | 
CS(=O)(=O)Oc1cccc(S(=O)(=O)C2CCCC2)n1 |  |  | 0.274 | 9.11 | 9.15
CCCC(C)S(=O)(=O)c1cccc(OS(C)(=O)=O)n1 (stereo not drawn) |  |  | 0.507 | 9.7 | 9.3
CCSc1cccc(OS(C)(=O)=O)n1 | 7.33 | 8.14 | -0.034 |  | 
CC(C)(C)CSc1cccc(OS(C)(=O)=O)n1 | 6.69 | 8.26 | 0.558 |  | 
CC(C)Sc1cccc(OS(C)(=O)=O)n1 | 7.39 | 8.43 | 0.163 |  | 
